Results taken from article PMC3639963, “A New Class of Small Molecule Inhibitor of BMP Signaling” (PLoS ONE, 2013).

How the values were obtained:
[1] = target: T1, DYRK2 (Homo sapiens, UniProt Q92630); test: DSF thermal shift; assay type: binding; settings: 10 µM inhibitor; read-out: Tm shift
T1 construct: purchased Nanosyn (enzymatic panel); SGC in-house recombinant human kinases (DSF panel); Invitrogen (ALK1-6)
T1 sequence (Q92630 1-601): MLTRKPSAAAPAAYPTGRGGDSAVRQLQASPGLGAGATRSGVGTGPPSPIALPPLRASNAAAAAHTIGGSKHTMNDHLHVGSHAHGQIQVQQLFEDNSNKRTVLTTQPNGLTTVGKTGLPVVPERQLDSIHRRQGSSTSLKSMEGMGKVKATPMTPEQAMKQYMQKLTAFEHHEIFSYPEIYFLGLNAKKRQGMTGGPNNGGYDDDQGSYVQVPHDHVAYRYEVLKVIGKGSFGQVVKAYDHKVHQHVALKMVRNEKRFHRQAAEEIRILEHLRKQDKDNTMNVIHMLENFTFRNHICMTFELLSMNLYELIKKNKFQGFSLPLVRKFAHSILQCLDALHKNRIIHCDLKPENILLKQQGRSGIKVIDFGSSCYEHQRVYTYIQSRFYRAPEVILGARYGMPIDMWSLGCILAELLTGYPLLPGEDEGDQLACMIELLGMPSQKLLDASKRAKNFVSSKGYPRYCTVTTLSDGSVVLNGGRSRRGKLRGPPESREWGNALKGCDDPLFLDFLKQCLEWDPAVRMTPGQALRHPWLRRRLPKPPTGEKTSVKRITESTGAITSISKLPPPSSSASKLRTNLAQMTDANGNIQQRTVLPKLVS
Procedure, shortened: (§1)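 Ligand was tested at a single concentration of 10 µM against recombinant human kinase held at 1–2 µM, with melting curves collected by real-time PCR hardware.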

[2] = target: T2, GRK3 (Homo sapiens, UniProt P35626); test: DSF thermal shift; assay type: binding; settings: 10 µM inhibitor; read-out: Tm shift
T2 construct: purchased Nanosyn (enzymatic panel); SGC in-house recombinant human kinases (DSF panel); Invitrogen (ALK1-6)
T2 sequence (P35626 whole entry): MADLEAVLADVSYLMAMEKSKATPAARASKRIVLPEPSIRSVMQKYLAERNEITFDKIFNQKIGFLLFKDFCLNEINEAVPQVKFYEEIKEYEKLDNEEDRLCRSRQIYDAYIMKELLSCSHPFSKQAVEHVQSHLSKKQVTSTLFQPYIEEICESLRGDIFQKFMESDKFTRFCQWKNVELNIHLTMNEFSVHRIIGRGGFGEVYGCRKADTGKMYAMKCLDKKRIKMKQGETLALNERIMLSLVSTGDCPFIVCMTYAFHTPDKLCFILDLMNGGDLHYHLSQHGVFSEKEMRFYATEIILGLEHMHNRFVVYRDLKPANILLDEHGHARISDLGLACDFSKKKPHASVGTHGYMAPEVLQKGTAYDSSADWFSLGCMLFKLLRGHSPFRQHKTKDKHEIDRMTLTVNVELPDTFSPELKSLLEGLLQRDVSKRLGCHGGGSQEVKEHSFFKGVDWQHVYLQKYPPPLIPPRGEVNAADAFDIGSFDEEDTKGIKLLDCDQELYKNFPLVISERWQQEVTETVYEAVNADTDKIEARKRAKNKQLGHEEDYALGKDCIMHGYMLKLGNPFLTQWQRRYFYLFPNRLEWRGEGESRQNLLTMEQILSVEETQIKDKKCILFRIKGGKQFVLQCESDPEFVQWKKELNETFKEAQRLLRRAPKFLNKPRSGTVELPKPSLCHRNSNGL
Procedure, shortened: as §1

[3] = target: T3, SRPK2 (Homo sapiens, UniProt P78362); test: DSF thermal shift; assay type: binding; settings: 10 µM inhibitor; read-out: Tm shift
T3 construct: purchased Nanosyn (enzymatic panel); SGC in-house recombinant human kinases (DSF panel); Invitrogen (ALK1-6)
Procedure, shortened: as §1

[4] = target: T4, TNIK (Homo sapiens, UniProt Q9UKE5); test: DSF thermal shift; assay type: binding; settings: 10 µM inhibitor; read-out: Tm shift
T4 construct: purchased Nanosyn (enzymatic panel); SGC in-house recombinant human kinases (DSF panel); Invitrogen (ALK1-6)
T4 sequence (Q9UKE5 whole entry): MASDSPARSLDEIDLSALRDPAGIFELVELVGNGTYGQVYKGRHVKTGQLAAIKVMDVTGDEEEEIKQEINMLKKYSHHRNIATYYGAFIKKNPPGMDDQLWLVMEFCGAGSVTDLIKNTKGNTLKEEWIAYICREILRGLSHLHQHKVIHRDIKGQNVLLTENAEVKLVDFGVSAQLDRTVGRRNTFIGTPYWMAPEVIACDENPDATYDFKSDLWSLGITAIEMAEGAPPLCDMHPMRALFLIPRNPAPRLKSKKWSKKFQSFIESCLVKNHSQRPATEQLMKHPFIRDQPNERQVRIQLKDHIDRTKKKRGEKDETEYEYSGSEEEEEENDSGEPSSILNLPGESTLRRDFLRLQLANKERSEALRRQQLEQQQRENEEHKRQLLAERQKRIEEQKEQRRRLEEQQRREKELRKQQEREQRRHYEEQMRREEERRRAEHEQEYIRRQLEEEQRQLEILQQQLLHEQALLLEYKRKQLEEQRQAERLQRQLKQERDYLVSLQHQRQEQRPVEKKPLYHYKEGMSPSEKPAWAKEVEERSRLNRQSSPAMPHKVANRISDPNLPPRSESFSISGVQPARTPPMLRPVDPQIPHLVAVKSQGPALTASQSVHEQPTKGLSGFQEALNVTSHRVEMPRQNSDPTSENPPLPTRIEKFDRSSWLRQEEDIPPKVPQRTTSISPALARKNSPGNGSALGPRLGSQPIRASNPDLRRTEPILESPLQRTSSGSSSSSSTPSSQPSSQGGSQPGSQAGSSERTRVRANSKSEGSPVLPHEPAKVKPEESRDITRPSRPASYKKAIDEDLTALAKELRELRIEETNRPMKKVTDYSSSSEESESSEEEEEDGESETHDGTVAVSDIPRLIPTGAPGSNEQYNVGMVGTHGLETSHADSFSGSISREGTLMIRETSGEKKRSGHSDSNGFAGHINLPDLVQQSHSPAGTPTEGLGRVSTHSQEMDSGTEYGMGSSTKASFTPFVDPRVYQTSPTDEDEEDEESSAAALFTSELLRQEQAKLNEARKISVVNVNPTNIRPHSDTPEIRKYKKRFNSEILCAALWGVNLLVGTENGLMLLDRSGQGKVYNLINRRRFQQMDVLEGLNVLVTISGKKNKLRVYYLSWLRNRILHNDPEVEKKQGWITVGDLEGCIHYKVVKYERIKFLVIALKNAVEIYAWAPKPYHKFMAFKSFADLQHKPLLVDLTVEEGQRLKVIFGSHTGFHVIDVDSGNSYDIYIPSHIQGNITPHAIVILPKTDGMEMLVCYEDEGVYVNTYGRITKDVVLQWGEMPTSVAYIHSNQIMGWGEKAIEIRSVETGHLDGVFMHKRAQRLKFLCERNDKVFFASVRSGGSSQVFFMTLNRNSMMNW
Procedure, shortened: as §1

[5] = target: T5, TTK (Homo sapiens, UniProt P33981); test: DSF thermal shift; assay type: binding; settings: 10 µM inhibitor; read-out: Tm shift
T5 construct: purchased Nanosyn (enzymatic panel); SGC in-house recombinant human kinases (DSF panel); Invitrogen (ALK1-6)
T5 sequence (P33981 1-857): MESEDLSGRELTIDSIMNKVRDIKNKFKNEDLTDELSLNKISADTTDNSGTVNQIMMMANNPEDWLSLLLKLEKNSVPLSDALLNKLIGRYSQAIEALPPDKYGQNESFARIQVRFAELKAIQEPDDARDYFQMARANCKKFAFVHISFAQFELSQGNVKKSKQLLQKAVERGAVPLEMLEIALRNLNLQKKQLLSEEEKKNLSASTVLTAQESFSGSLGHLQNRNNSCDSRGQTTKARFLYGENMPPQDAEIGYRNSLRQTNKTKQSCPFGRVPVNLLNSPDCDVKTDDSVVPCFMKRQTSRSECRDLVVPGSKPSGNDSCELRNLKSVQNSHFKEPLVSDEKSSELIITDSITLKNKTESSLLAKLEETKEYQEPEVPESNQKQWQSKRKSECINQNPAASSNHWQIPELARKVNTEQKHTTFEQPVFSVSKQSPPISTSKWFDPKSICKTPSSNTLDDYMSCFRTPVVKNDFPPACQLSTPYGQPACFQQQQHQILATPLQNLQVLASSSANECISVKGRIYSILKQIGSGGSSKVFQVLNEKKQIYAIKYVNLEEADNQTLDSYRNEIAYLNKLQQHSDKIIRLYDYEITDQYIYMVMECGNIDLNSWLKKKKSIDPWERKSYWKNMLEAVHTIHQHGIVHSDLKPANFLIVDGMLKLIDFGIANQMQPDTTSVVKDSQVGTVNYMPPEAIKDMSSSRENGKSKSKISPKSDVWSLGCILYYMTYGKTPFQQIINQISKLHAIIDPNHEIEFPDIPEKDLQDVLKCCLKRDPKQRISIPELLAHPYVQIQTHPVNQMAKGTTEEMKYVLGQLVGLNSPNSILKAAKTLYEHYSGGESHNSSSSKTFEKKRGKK
Procedure, shortened: as §1

[6] = target: T6, FES (Homo sapiens, UniProt P07332); test: Nanosyn kinase profiling; assay type: biochemical; settings: read-out: Percentage inhibition; for inhibition at 0.1 µM: 0.1 µM inhibitor; for inhibition at 1 µM: 1 µM inhibitor
T6 construct: purchased Nanosyn (enzymatic panel); SGC in-house recombinant human kinases (DSF panel); Invitrogen (ALK1-6)
T6 sequence (P07332 whole entry): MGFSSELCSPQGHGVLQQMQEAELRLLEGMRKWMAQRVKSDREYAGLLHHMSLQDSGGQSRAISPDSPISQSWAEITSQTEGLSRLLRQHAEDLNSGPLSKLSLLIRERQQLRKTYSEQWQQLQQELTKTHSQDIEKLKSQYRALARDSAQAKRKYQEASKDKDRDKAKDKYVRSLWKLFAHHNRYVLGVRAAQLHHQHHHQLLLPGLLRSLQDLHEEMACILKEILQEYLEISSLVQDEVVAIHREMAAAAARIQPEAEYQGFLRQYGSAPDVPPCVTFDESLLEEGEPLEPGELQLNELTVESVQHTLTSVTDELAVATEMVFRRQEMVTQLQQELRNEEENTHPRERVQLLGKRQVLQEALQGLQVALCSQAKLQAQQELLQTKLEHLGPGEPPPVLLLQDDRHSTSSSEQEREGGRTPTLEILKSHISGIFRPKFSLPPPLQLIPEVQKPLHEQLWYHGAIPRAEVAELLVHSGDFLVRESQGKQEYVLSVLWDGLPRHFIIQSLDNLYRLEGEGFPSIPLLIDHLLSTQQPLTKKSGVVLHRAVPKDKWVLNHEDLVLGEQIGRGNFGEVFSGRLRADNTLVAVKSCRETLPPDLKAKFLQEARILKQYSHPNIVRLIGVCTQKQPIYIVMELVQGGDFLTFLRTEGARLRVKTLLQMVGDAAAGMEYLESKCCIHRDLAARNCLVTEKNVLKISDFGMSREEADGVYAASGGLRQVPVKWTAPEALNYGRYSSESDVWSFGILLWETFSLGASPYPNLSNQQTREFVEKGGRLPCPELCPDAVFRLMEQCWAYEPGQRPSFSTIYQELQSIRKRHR
Procedure, shortened: (§2)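 Percent inhibition of each kinase was measured with the inhibitor at 0.1 µM and at 1 µM, as part of a 200-kinase human selectivity panel.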

[7] = target: T7, FGFR4 (Homo sapiens, UniProt P22455); test: Nanosyn kinase profiling; assay type: biochemical; settings: read-out: Percentage inhibition; for inhibition at 0.1 µM: 0.1 µM inhibitor; for inhibition at 1 µM: 1 µM inhibitor
T7 construct: purchased Nanosyn (enzymatic panel); SGC in-house recombinant human kinases (DSF panel); Invitrogen (ALK1-6)
T7 sequence (P22455 22-802): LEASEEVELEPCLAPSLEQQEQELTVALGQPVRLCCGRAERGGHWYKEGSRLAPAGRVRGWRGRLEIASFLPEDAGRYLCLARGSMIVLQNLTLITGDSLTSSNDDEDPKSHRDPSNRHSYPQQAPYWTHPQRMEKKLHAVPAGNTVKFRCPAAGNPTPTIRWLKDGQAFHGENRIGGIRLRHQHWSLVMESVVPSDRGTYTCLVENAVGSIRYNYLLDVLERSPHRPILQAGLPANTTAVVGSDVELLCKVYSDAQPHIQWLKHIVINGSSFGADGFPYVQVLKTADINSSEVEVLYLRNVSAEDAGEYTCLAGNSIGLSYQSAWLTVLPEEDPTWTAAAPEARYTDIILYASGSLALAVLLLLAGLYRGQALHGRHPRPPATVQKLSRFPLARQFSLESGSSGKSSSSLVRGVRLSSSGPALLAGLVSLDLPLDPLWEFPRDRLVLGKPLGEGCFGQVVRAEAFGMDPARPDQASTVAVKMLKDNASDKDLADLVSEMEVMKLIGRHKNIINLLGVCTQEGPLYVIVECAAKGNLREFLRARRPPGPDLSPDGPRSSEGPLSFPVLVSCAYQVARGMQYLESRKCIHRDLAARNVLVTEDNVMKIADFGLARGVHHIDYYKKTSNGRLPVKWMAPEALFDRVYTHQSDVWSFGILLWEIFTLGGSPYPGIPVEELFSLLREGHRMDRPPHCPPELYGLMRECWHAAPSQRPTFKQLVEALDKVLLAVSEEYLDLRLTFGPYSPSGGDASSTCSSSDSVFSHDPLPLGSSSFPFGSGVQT
Procedure, shortened: as §2

[8] = target: T8, IKK-β (Homo sapiens, UniProt O14920); test: Nanosyn kinase profiling; assay type: biochemical; settings: read-out: Percentage inhibition; for inhibition at 0.1 µM: 0.1 µM inhibitor; for inhibition at 1 µM: 1 µM inhibitor
T8 construct: purchased Nanosyn (enzymatic panel); SGC in-house recombinant human kinases (DSF panel); Invitrogen (ALK1-6)
T8 sequence (O14920 1-756): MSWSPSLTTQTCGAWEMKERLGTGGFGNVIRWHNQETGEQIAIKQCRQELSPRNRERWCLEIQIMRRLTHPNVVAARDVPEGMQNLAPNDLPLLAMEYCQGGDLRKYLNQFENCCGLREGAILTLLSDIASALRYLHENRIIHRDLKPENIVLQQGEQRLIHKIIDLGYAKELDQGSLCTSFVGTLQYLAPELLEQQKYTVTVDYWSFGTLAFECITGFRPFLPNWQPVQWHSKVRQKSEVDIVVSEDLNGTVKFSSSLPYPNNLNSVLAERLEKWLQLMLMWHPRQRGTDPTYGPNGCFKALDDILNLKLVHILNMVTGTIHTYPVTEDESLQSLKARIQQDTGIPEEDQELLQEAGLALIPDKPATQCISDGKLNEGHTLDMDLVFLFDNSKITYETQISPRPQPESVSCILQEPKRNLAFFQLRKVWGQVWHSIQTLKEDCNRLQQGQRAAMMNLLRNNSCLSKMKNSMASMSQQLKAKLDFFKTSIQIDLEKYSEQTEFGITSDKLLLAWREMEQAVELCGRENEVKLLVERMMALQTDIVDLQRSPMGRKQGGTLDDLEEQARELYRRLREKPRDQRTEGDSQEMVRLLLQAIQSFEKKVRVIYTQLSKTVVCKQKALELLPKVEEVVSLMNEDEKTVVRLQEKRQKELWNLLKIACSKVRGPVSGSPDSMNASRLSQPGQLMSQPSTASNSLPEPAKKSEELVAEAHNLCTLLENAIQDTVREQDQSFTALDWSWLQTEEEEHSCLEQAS
Procedure, shortened: as §2

[9] = target: T9, PDGFRα (Homo sapiens, UniProt P16234); test: Nanosyn kinase profiling; assay type: biochemical; settings: read-out: Percentage inhibition; for inhibition at 0.1 µM: 0.1 µM inhibitor; for inhibition at 1 µM: 1 µM inhibitor
T9 construct: purchased Nanosyn (enzymatic panel); SGC in-house recombinant human kinases (DSF panel); Invitrogen (ALK1-6)
T9 sequence (P16234 24-1089): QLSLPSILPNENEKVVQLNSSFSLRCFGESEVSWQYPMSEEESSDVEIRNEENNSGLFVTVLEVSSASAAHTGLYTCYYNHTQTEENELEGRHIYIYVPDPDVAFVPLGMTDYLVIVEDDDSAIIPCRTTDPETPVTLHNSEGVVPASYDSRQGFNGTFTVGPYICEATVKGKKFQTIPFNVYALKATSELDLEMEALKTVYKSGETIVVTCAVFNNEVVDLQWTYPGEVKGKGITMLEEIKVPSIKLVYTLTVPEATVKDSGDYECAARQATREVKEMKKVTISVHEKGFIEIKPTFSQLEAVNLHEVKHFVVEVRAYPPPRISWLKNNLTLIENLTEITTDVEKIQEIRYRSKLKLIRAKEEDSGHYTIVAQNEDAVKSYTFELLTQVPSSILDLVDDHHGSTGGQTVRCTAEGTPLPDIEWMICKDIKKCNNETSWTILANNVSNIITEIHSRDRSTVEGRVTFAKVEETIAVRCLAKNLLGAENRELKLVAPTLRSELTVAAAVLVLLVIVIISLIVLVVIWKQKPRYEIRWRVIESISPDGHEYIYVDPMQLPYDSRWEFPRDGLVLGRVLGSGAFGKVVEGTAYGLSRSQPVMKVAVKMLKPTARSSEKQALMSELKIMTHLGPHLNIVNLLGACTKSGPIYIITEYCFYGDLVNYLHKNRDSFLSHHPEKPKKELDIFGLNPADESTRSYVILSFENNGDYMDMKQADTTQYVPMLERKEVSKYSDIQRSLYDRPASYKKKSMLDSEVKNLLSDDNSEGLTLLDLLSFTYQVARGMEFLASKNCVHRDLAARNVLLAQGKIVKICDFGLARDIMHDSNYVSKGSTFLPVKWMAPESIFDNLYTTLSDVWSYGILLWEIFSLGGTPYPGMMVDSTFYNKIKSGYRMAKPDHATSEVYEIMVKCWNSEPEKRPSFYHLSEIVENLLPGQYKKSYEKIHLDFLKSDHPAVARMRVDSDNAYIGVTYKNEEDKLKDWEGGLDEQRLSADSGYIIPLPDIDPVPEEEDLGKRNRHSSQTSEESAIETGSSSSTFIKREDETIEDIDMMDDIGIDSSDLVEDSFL
Procedure, shortened: as §2

| ΔTm at 10 µM [1] [°C] | ΔTm at 10 µM [2] [°C] | ΔTm at 10 µM [3] [°C] | ΔTm at 10 µM [4] [°C] | ΔTm at 10 µM [5] [°C] | Structure (SMILES) | inhibition at 0.1 µM [6] [%] | inhibition at 1 µM [6] [%] | inhibition at 0.1 µM [7] [%] | inhibition at 1 µM [7] [%] | inhibition at 0.1 µM [8] [%] | inhibition at 1 µM [8] [%] | inhibition at 0.1 µM [9] [%] | inhibition at 1 µM [9] [%] |
| --- | --- | --- | --- | --- | --- | --- | --- | --- | --- | --- | --- | --- | --- |
| 0.3 | 0.1 | 0.2 | 6.1 | 1.1 | COc1cc(-c2cc(-c3cccc(O)c3)cnc2N)cc(OC)c1OC [K02288, 3-[6-amino-5-(3,4,5-trimethoxy-phenyl)-pyridin-3-yl]-phenol] | -1 | -1 | 4 | 0 | -2 | 1.3 | 5.3 | 37 |
| – | – | – | – | – | c1ccc2c(-c3cnn4cc(-c5ccc(N6CCNCC6)cc5)cnc34)ccnc2c1 [LDN-193189] | 2.2 | 2.4 | 0.3 | 2.4 | 0.3 | 1.4 | 18 | 56 |
| 5.1 | -0.1 | 0.2 | 4.2 | 1 | c1cc(-c2cnn3cc(-c4ccc(OCCN5CCCCC5)cc4)cnc23)ccn1 [Dorsomorphin] | – | – | – | – | – | – | – | – |
